Among the data in US20210139484A1, “DIHYDROISOQUINOLINE-2(1H)-CARBOXAMIDE AND RELATED COMPOUNDS AND THEIR USE IN TREATING MEDICAL CONDITIONS” (GOSSAMER BIO SERVICES, INC., priority 2018, published 2021) are IC50 values, retold here.

One may read the IC50 as the concentration that inhibits the measured activity by half. A higher IC50 goes with weaker potency.

A value given as a limit tells only on which side of the number the result lay.

One experiment deals with T1, human HPK1 protein (Homo sapiens, UniProt Q92918).
T1 construct: recombinant human HPK1 protein (a.a. 1-346) was expressed in Sf9 insect cells; GST (N); purchased Signalchem M23-11G; host or cells: Sf9 insect cells (baculovirus)
T1 sequence (Q92918 1-346): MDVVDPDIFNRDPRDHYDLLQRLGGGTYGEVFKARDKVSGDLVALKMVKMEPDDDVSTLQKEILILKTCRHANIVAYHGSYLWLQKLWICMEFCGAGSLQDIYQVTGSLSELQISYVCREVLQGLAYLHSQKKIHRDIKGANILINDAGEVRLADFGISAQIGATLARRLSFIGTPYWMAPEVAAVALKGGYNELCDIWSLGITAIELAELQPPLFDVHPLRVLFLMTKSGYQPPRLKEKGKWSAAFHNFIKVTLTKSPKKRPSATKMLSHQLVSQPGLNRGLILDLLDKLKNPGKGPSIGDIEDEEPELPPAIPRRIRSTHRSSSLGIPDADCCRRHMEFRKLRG
Description: Human HPK1 protein TR-FRET assay. The format is biochemical. The settings on record: 1 mM ATP, Table 19. In outline: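 GST-tagged HPK1 (a.a. 1-346, Sf9-expressed) at 10 nM phosphorylated 100 nM ULight CREBtide with 1 mM ATP in Tris pH 7.5, MgCl2, NP-40, DTT, 1% DMSO, 60 minutes at room temperature. Phospho-Ser133 detected by Eu-antibody TR-FRET (665/615 nm ratio); IC50 from 4-parameter fit against DMSO control.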
On the technique in general: TR-FRET usually uses a lanthanide donor and a delayed reading to cut background.
In turn, `CCN1CCN(Cc2ccc(NC(=O)N3CCc4ccc(Oc5cc(Nc6ncc[nH]6)ncn5)cc4C3)cc2C(F)(F)F)CC1` [II-17] returned a half-inhibitory concentration (IC50) of less than 500 nM.
Consider `CCN1CCN(Cc2ccc(NC(=O)N3CCc4ccc(Oc5cn[nH]c5)cc4C3)cc2C(F)(F)F)CC1` [II-21], for which the IC50 is 500 to 5000 nM.
Regarding `CCN1CCN(Cc2ccc(NC(=O)N3CCc4cc(F)c(Oc5ccnc6[nH]ccc56)cc4C3)cc2C(F)(F)F)CC1` [compound 3, 7-((1H-Pyrrolo[2,3-b]pyridin-4-yl)oxy)-N-(4-((4-ethylpiperazin-1-yl)methyl)-3-(trifluoromethyl)phenyl)-6-fluoro-3,4-dihydroisoquinoline-2(1H)-carboxamide], the IC50 is less than 500 nM.
Consider `CCN1CCN(Cc2ccc(NC(=O)N3CCc4ccc(Sc5ncnn6cccc56)cc4C3)cc2C(F)(F)F)CC1` [X-3], for which the IC50 fell in the range of 500 to 5000 nM.
Turning to `CCN1CCN(Cc2ccc(NC(=O)N3CCc4ncc(Oc5ccnc6[nH]ccc56)cc4C3)cc2C(F)(F)F)CC1` [VII-1], the IC50 was less than 500 nM.
On the same count and under the same terms, the figure for `Cc1cc2c(Oc3ccc4c(c3)[C@H](C)N(C(=O)Nc3cnc(OC5CCNCC5)c(C(F)(F)F)c3)CC4)ccnc2[nH]1` [VI-1] is less than 500 nM; for `CCN1CCN(Cc2ccc(NC(=O)N3Cc4cc(Oc5ccnc6[nH]c(C)cc56)cnc4C(C)C3)cc2C(F)(F)F)CC1` (single isomer, unassigned) [VII-21] it is less than 500 nM; for `CCN1CCN(Cc2ccc(NC(=O)N3CCc4ccc(Oc5ccnc6[nH]ncc56)cc4C3)cc2C(F)(F)F)CC1` [II-4] it is less than 500 nM.
On the same count and under the same terms, the figure for `CCN1CCN(Cc2ccc(NC(=O)N3CCc4ccc(Oc5ccnc(NC(C)=O)c5)cc4C3)cc2C(F)(F)F)CC1` [II-14] is less than 500 nM.
On the same count and under the same terms, the value for `CCN1CCN(Cc2ccc(NC(=O)N3CCc4ccc(Oc5ccnc6[nH]ccc56)cc4[C@@H]3C)cc2C(F)F)CC1` [V-4] was less than 500 nM.
`CCN1CCN(Cc2ccc(NC(=O)N3CCc4ncc(Oc5ncnn6cccc56)cc4C3)cc2C(F)(F)F)CC1` [compound 8, N-[4-[(4-Ethylpiperazin-1-yl)methyl]-3-(trifluoromethyl)phenyl]-3-[pyrrolo[2,1-f][1,2,4]triazin-4-yloxy]-5,6,7,8-tetrahydro-1,6-naphthyridine-6-carboxamide] displayed an IC50 of less than 500 nM.
Turning to `CCN1CCN(Cc2ccc(NC(=O)N3CCc4ccc(Oc5ccnc(C(=O)NC)c5)cc4[C@@H]3C)cc2C(F)(F)F)CC1` [V-13], the IC50 was less than 500 nM.

Staying with this experiment, now noted: 1 mM ATP, Table 20.
On to `CC[C@H]1CN(C(=O)Nc2ccc(CN3CCNCC3)c(C(F)(F)F)c2)Cc2cc(Oc3ccnn4cc(C(=O)NC)cc34)cnc21` [XIV-125], for which the IC50 is less than 500 nM.
Consider `CC[C@H]1CN(C(=O)Nc2cnc(OC3CCN(C)CC3)c(C(F)(F)F)c2)Cc2cc(Oc3ccnc4[nH]c(CCOC)cc34)cnc21` [XIV-35], for which the IC50 was less than 500 nM.
As to `CCN1CCN(Cc2ccc(NC(=O)N3Cc4cc(Oc5ccnc6[nH]ccc56)cnc4[C@@H](C)C3)cc2C(F)(F)F)CC1` [XI-10], the IC50 is less than 500 nM.
In turn, `CC[C@@H]1CN(C(=O)Nc2ccc(CN3CCN(CCO)CC3)c(C(F)F)c2)Cc2cc(Oc3ccnc4[nH]c(C#N)cc34)ccc21` [XV-20] yielded an IC50 of less than 500 nM.
The same measure, in the same setting: the value for `CC[C@H]1CN(C(=O)Nc2ccc(CN3CCN(C)CC3)c(C(F)(F)F)c2)Cc2cc(Oc3ccnc4[nH]c(C(N)=O)cc34)cnc21` [XIV-84] was less than 500 nM.
Take `CCN1CCN(Cc2ccc(NC(=O)N3Cc4cc(Oc5ncnc6[nH]c(C)cc56)cnc4[C@@H](C)C3)cc2C(F)(F)F)CC1` [XI-6]: the IC50 is less than 500 nM.
Compound `CC[C@H]1CN(C(=O)Nc2ccc(CN3CCN(CCO)CC3)c(C(F)(F)F)c2)Cc2cc(Oc3ccnc4[nH]c(C5CC5)cc34)cnc21` [XIV-60] came in with an IC50 of less than 500 nM.
With `CCC1CN(C(=O)Nc2ccc(CN3CCN(CC)CC3)c(C(F)(F)F)c2)Cc2cc(Oc3ccnc4[nH]c(C5CCOC5)cc34)cnc21` (stereo not drawn) [XIV-63], the IC50 is less than 500 nM.
Same read-out and setting: the figure for `C[C@@H]1Cc2ccc(Oc3ccnc4[nH]c(C5(O)CC5)cc34)cc2CN1C(=O)Nc1ccc(CN2CCN(C)CC2)c(C(F)(F)F)c1` [XVI-2] is less than 500 nM.
For `CCC1CN(C(=O)Nc2ccc(CN3CCN(CC)CC3)c(C(F)(F)F)c2)Cc2cc(Oc3ccnc4[nH]c(C(C)OC)cc34)cnc21` (stereo not drawn) [XIV-41], the IC50 is 5000 to 10000 nM.
On the same count and under the same terms, the value for `CC[C@@H]1CN(C(=O)Nc2ccc(CN3CCNCC3)c(C(F)(F)F)c2)Cc2cc(Oc3ccnc4[nH]c(C#N)cc34)ccc21` [XV-16] was less than 500 nM; that for `CC[C@H]1CN(C(=O)Nc2ccc(CN3CCN(C)CC3)c(C(F)(F)F)c2)Cc2cc(Oc3ncnn4cc(C(=O)N(C)C)cc34)cnc21` [XIV-144] was less than 500 nM.
With `CC[C@H]1CN(C(=O)Nc2ccc(CN3CCNCC3)c(C(F)(F)F)c2)Cc2cc(Oc3ccnc4[nH]c(CO)cc34)ccc21` [XV-5], the IC50 was less than 500 nM.
`CN1CCN(Cc2ccc(NC(=O)N3CCc4ccc(Nc5c(F)cnc6[nH]c(-c7cnn(C)c7)cc56)cc4C3)cc2C(F)(F)F)CC1` [compound 22, 7-[[5-Fluoro-2-(1-methylpyrazol-4-yl)-1H-pyrrolo[2,3-b]pyridin-4-yl]amino]-N-[4-[(4-methylpiperazin-1-yl)methyl]-3-(trifluoromethyl)phenyl]-3,4-dihydro-1H-isoquinoline-2-carboxamide] had a half-maximal inhibitory concentration (IC50) of less than 500 nM.
`CC[C@H]1CN(C(=O)Nc2ccc(CN3CCN(C)CC3)c(C(F)(F)F)c2)Cc2cc(Oc3ccnc4[nH]c(-c5nnc(C)o5)cc34)cnc21` [XIV-112] returned an IC50 of less than 500 nM.
Take `CC[C@H]1CN(C(=O)Nc2ccc(CN3CCNCC3)c(C(F)(F)F)c2)Cc2cc(Oc3ncnn4cc(C(=O)N(C)C)cc34)cnc21` [XIV-146]: the IC50 is less than 500 nM.
As for `CCN1CCN(Cc2ccc(NC(=O)N3CCc4ccc(Oc5cc(NC(=O)OC)ncc5F)cc4[C@@H]3C)cc2C(F)(F)F)CC1` [XIII-13], the IC50 was less than 500 nM.
The same measure, in the same setting: the figure for `CN(C)C(=O)c1cc2c(Oc3ccc4c(c3)CN(C(=O)Nc3ccc(CN5CCNCC5)c(C(F)(F)F)c3)CC4)c(F)cnc2[nH]1` [XVIII-3] is less than 500 nM; for `CC[C@H]1CN(C(=O)Nc2ccc(CN3CCN(C)CC3)c(C(F)(F)F)c2)Cc2cc(Oc3ccnc4[nH]c(-c5noc(=O)[nH]5)cc34)cnc21` [XIV-132] it is less than 500 nM.
On the same count and under the same terms, the figure for `CCN1CCN(Cc2ccc(NC(=O)N3Cc4cc(Oc5ccnc6[nH]ccc56)cnc4C[C@@H]3C)cc2C(F)(F)F)CC1` [XVIII-18] is less than 500 nM.
On the same count and under the same terms, the figure for `CC[C@H]1CN(C(=O)Nc2ccc(CN3CCN(C)CC3)c(C(F)(F)F)c2)Cc2cc(Oc3ccnc4[nH]c(CS(C)(=O)=O)cc34)cnc21` [XIV-150] is less than 500 nM; for `CN1CCC(Oc2ncc(NC(=O)N3CCc4ccc(Oc5c(F)cnc6[nH]c(-c7cnn(C)c7)cc56)cc4C3)cc2C(F)(F)F)CC1` [XII-13] it is less than 500 nM.
For the compound `CC[C@H]1CN(C(=O)Nc2ccc(CN3CCN(C)CC3)c(C(F)F)c2)Cc2cc(Oc3ccnc4[nH]c(C5(O)COC5)cc34)cnc21` [XIV-53], the IC50 was less than 500 nM.
In the case of `C[C@H]1CN(C(=O)Nc2cnc(CN3CCN(C)CC3)c(C(F)(F)F)c2)Cc2cc(Oc3c(F)cnc4[nH]c(-c5cnn(C)c5)cc34)ccc21` [XII-11], the IC50 was less than 500 nM.
The compound `CC[C@@H]1Cc2ncc(Oc3ccnc4[nH]ccc34)cc2CN1C(=O)Nc1ccc(CN2CCN(CC)CC2)c(C(F)(F)F)c1` [XVIII-17] had an IC50 of less than 500 nM.
`CC[C@H]1CN(C(=O)Nc2ccc(CN3CCN(C)CC3)c(C(F)(F)F)c2)Cc2cc(Oc3ccnc4[nH]c(-c5cc[nH]n5)cc34)cnc21` [XIV-148]: the IC50 was less than 500 nM.
For `CCN1CCN(Cc2ccc(NC(=O)N3CCc4ccc(Oc5cc(NC(=O)c6ccnnc6)ncc5F)cc4[C@@H]3C)cc2C(F)(F)F)CC1` [XIII-14], the IC50 was less than 500 nM.
Still for that read-out and setting: the value for `C[C@H]1CN(C(=O)Nc2ccc(CN3CCN(C)CC3)c(C(F)(F)F)c2)Cc2cc(Oc3c(F)cnc4[nH]c(C(=O)N(C)C)cc34)ccc21` [XV-39] was less than 500 nM; that for `CC[C@@H]1CN(C(=O)Nc2ccc(CN3CCN(CCO)CC3)c(C(F)(F)F)c2)Cc2cc(Oc3ccnc4[nH]c(C5CC5)cc34)ccc21` [XV-26] was less than 500 nM; that for `C[C@@H]1Cc2ccc(Oc3c(F)cnc4[nH]c(-c5cnn(C)c5)cc34)cc2CN1C(=O)Nc1cnc(CN2CCN(C)CC2)c(C(F)(F)F)c1` [XVI-5] was less than 500 nM.
Consider `CCC1CN(C(=O)Nc2ccc(CN3CCN(CC)CC3)c(C(F)(F)F)c2)Cc2cc(Oc3ccnc4[nH]c(C5CCOCC5)cc34)cnc21` (stereo not drawn) [XIV-70], for which the IC50 is less than 500 nM.
Still for that read-out and setting: the value for `O=C(Nc1ccc(CN2CCNCC2)c(C(F)(F)F)c1)N1CCc2ccc(Oc3ccnc4[nH]c(C5(O)CC5)cc34)cc2C1` [XVIII-9] was less than 500 nM; that for `Cn1cc(-c2cc3c(Oc4ccc5c(c4)CN(C(=O)Nc4ccc(CN6CCN(CCO)CC6)c(C(F)(F)F)c4)CC5)c(F)cnc3[nH]2)cn1` [XII-14] was less than 500 nM; that for `CCN1CCN(Cc2ccc(NC(=O)N3CCc4ccc(Oc5c(F)cnc6[nH]c(C7(O)COC7)cc56)cc4[C@@H]3C)cc2C(F)(F)F)CC1` [XIII-16] was less than 500 nM.
The same measure, in the same setting: the figure for `CCC1CN(C(=O)Nc2ccc(CN3CCN(CC)CC3)c(C(F)(F)F)c2)Cc2cc(Oc3ncnc4[nH]c(C)cc34)cnc21` (stereo not drawn) [XIV-3] is less than 500 nM; for `CC[C@@H]1CN(C(=O)Nc2cnc(OC3CCN(C)CC3)c(C(F)(F)F)c2)Cc2cc(Oc3ccnc4[nH]c(C#N)cc34)cnc21` [XIV-42] it is less than 500 nM.
